# Experimental data as given in patent US20230406849A1, “KRAS INHIBITORS FOR TREATMENT OF CANCERS” (TYLIGAND BIOSCIENCE (SHANGHAI) LIMITED, priority 2020, published 2023).
# Assays:
# [1] = test system: BaF3-KRas-G12C-Y96D; assay: Proliferation of KRas G12C inhibitor-resistant cell model, CTG; format: cell-based; conditions: Adagrasib acquired-resistance model
# Procedure: Each of the above cell lines was cultured in the indicated complete medium at 37° C., 5% CO2, and the cells in the logarithmic growth phase were harvested and counted using a platelet counter. The cell viability was detected by the trypan blue exclusion method to ensure that the cell viability was above 90%. Cell density was adjusted using complete medium, and then inoculated into 96-well cell culture plates, at 90 μL and a total of 3000 cells per well. The cells in the 96-well plate were cultured at 37° C. and 5% CO2.
# 10 μL of each diluted compound solution was transferred to the corresponding experimental well of the 96-well cell plate and each concentration was set three replicate wells. The cells in the 96-well plate that had been dosed were incubated at 37° C. and 5% CO2 for 72 hours, and then CTG analysis was performed.
# The CTG reagent was melted, and the cell plate was moved to room temperature to equilibrate for 30 minutes. 100 μL of CTG solution was added to each well, and shaken on an orbital shaker for 5 minutes to fully lyse the cells. The plate was kept at room temperature for 20 minutes to stabilize the luminescence signal, and the luminescence value of each well was scanned and the data was collected. GraphPad Prism 7.0 software was used to analyze the data, and the nonlinear Sigmoidal regression was used to fit the data to obtain a dose-response curve. The relative and absolute IC50 values and the maximum inhibition rate were calculated according to conventional methods well known to those skilled in the art.
# Inhibition rate %=[1−(LumDrug to be tested−LumCulture medium control)/(LUMCell control−LumCulture medium control)]×100%
# Acquired resistance is one of the key factors that affect the treatment efficacy of KRas G12C inhibitors.
# All cell lines used in this assay were provided by KYinno Biotechnology Co., Ltd.
# [2] = Pharmacokinetics in rats, IV and oral; format: in vivo, SD rats; conditions: rat
# Procedure: 2.2 Pharmacokinetic Properties of Representative Examples of the Present Disclosure
# [Test materials] Same as above 2.1.
# [Experimental procedure]: IV injection administration was performed on rats according to the similar procedure described in 2.1 above, with a drug concentration of 3 mg/mL, and the drug preparation, administration and sample collection were performed by reference to 2.1 above. For the oral administration group, the drug was formulated to a 3 mg/mL suspension in 0.5% methylcellulose MC-400cp (Aladdin, M112866), and gavage administered in 10 mL/kg. Blood samples were collected at the time points of 0.25, 0.5, 1, 2, 4, 6, 8 and 24 hours after administration via external jugular vein puncture, centrifuged at low temperature for 20 minutes, and the plasma samples were collected and stored at −80° C. until analysis.
# The subsequent sample analysis and data processing are similar to those described in 2.1.
Compound,IC50 [1] [nM],"AUC(0-inf) ([2]; male, SD, plasma, IV, 3 mg/kg) [ng·h/mL]","AUC(0-t) ([2]; male, SD, plasma, IV, 3 mg/kg) [ng·h/mL]","Vd ([2]; male, SD, plasma, IV, 3 mg/kg) [L/kg]","clearance ([2]; male, SD, plasma, IV, 3 mg/kg) [mL/min/kg]","half-life ([2]; male, SD, plasma, IV, 3 mg/kg) [h]","AUC(0-inf) ([2]; male, SD, plasma, PO, 30 mg/kg) [ng·h/mL]","AUC(0-t) ([2]; male, SD, plasma, PO, 30 mg/kg) [ng·h/mL]","Cmax ([2]; male, SD, plasma, PO, 30 mg/kg) [ng/mL]","Tmax ([2]; male, SD, plasma, PO, 30 mg/kg) [h]",F ([2]; PO 30 mg/kg vs IV 3 mg/kg) [%]
"C=CC(=O)N1CCN(c2ncnc3c(F)c(-c4ccc(F)c5sc(N)nc45)c(Cl)cc23)CC1 [Ref. Comp. A, reference compound]",3240,–,–,–,–,–,–,–,–,–,–
"C=CC(=O)N1CCN(c2c(C#N)cnc3c(F)c(-c4ccc(F)c5sc(N)nc45)c(Cl)cc23)CC1 [Example 9, 4-(4-Acryloylpiperazin-1-yl)-7-(2-amino-7-fluorobenzo[d]thiazol-4-yl)-6-chloro-8-fluoroquinoline-3-carbonitrile]",1290,3310,3310,0.63,15.6,0.67,7870,7780,2390,1.33,23.8
